Test results taken from PMC1079883, “Effects of first and second generation antihistamines on muscarinic induced mucus gland cell ion transport” (BMC Pharmacology, 2005).
Like-named read-outs stand apart in the source and are kept apart here.

How the values were obtained:
[1] = target: T1, M3 subtype muscarinic receptor (Sus scrofa, UniProt P11483); assay: ACh-induced short-circuit current (ΔIsc) in cultured airway mucus gland cells, Ussing chamber, Schild dose-ratio method; assay type: cell-based, swine; settings: for effect on the cholinergic (ACh) response / antimuscarinic action: at highest drug concentration tested: cetirizine 100 μM, loratadine 30 μM (Table 1; abstract 10 μM), fexofenadine 10 μM; for Muscarinic inhibition (pA2): Schild dose-ratio method, slope set to 1, inhibition of ACh-induced ΔIsc, pA2 = -log Ki, mean ± SEM
T1 construct: Tracheal submucosal gland cells were isolated from the tracheal epithelium; endogenous in cells; host or cells: primary swine tracheal submucosal (mucus) gland cells in culture

H1 receptor = target: T2, H1 receptor (Sus scrofa, UniProt K9IVW0); assay: histamine-induced short-circuit current (ΔIsc) in cultured airway mucus gland cells, Ussing chamber; assay type: cell-based, swine
T2 construct: Tracheal submucosal gland cells were isolated from the tracheal epithelium; endogenous in cells; host or cells: primary swine tracheal submucosal (mucus) gland cells in culture

[2] = target: muscarinic receptors in the cerebral cortex; settings: read-out: Ki against muscarinic receptors, radioligand (QNB) binding, all muscarinic subtypes, ref 16 Kubo et al.; cited from earlier work
histamine H1 receptor = settings: radioligand binding assays; ref 18 Anthes et al.; cited from earlier work
[3] = read-out: H1 receptor inhibition (~1/2 max-μM)

T2 sequence (K9IVW0 1-472): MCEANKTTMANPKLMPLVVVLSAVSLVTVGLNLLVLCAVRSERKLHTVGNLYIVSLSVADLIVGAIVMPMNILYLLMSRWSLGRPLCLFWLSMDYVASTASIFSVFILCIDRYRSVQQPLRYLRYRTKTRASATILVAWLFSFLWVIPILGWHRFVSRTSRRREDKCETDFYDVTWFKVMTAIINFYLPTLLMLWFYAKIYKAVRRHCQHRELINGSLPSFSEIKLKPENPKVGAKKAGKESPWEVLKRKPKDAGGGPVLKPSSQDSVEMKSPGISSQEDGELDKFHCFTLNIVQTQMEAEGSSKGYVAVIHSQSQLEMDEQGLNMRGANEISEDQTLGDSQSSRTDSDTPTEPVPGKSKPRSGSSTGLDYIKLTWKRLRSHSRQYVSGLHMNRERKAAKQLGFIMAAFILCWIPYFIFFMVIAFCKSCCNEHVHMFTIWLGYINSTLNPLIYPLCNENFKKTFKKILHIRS
T1 sequence (P11483 whole entry): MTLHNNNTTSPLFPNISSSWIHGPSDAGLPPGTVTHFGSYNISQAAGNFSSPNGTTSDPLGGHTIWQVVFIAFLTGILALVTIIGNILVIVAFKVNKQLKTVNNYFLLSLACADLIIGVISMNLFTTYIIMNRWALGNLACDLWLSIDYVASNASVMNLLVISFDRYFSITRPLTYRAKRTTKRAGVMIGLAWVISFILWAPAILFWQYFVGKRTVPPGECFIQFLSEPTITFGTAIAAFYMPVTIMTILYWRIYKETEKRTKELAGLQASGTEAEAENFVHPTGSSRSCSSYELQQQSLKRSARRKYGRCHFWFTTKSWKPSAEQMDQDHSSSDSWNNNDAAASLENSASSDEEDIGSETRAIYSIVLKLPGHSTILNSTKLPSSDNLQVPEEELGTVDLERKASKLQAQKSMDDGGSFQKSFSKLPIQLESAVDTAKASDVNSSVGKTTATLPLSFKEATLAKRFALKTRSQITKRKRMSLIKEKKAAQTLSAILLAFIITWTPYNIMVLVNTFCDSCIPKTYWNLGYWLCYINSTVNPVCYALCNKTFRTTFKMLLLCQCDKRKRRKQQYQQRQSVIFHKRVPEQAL

**Q.** For `CC(=O)OCC[N+](C)(C)C` [ACh, acetylcholine], which “maximum increase in current (ΔIsc)” value [1] is on record?
**A.** 15.5 ± 1 μA/cm^2

**Q.** For `O=C(O)COCCN1CCN(C(c2ccccc2)c2ccc(Cl)cc2)CC1` (centres unmarked) [Cetirizine], which “effect on the cholinergic (ACh) response / antimuscarinic action” value [1] is on record?
**A.** No effect (at 100 μM)

**Q.** And the “effect on the cholinergic (ACh) response / antimuscarinic action” value ([1]; listed as cetirizine)?
**A.** no effects

**Q.** What about the IC50 (H1 receptor; [3]) of the same compound?
**A.** 0.12 µM

**Q.** For `CC(C)(C(=O)O)c1ccc(C(O)CCCN2CCC(C(O)(c3ccccc3)c3ccccc3)CC2)cc1` (centres unmarked) [Fexofenadine], which IC50 (H1 receptor; H1 receptor inhibition (~1/2 max-μM)) is on record?
**A.** 0.25 µM

**Q.** Which Ki [2] does the source give for `OCCOCCN1CCN(C(c2ccccc2)c2ccc(Cl)cc2)CC1` (centres unmarked) [Hydroxyzine] here?
**A.** 3800 nM

**Q.** And the Kb [1]?
**A.** 15800 nM

**Q.** And the Ki ([1]; M3 muscarinic receptor induced ΔIsc, from Schild analysis, read-out: estimated Ki for inhibition of muscarinic receptors)?
**A.** 15000 nM

**Q.** What about the “Muscarinic inhibition (pA2)” value [1] of the same compound?
**A.** 4.8

**Q.** And the Kb (histamine H1 receptor)?
**A.** 10 nM

**Q.** What about the IC50 (H1 receptor; [3]) of the same compound?
**A.** 0.14 µM

**Q.** For `COc1ccccc1CNCCCCCCNCCCCCCCCNCCCCCCNCc1ccccc1OC` [Methoctramine], which Kb [1] is on record?
**A.** 2510 nM

**Q.** What about the “Muscarinic inhibition (pA2)” value [1] of the same compound?
**A.** 5.6

**Q.** Which “maximum increase in current (ΔIsc)” value (H1 receptor) does the source give for `NCCc1c[nH]cn1` [histamine] here?
**A.** 19 ± 1 μA/cm^2
